Key:
[1] = system: PolySeed BOD Seed Inoculum (blend of broad spectrum bacteria); experiment: Durability test of bacteria inhibition (repeated spiking of bacteria on agar plate, swab viable count); format: cell-based; details: bacteria spiked every 60 minutes
Method: To evaluate the durability of bacteria inhibition of the exemplary compositions, durability test by regularly spiking a fixed amount of bacteria into the sample is performed and the procedures are incorporated herein by reference.
• Group A: Agar plate with 0.5 mL distilled water; • Group B: Agar plate with 0.5 mL 75% isopropyl alcohol (IPA); • Group C: Agar plate with 0.5 g of tested exemplary composition.
Bacteria strain used: PolySeed® BOD Seed Inoculum Capsules (1 capsule dissolved into 500 mL Distilled Water) (Interlab), which contains a blend of broad spectrum bacteria designed specifically as a seed inoculum for the Biochemical Oxygen Demand (BOD 5) test as conducted in accordance to Standard Methods of the Examination of Water and Wastewater. PolySeed® is an EPA approved BOD 5 seed inoculum that has been used to seed both municipal and industrial wastes for almost 20 years. • Agar: Trypticase Soy Agar (TSA) • Incubation condition: 48 hours at 30±1° C. • Testing Procedure
The above three sample group agar plates are used as the sample matrices of different initial situation for spiking 0.5 ml bacteria solution for every 60 minutes, i.e.: there was an on-going process of spiking bacteria at time 0, 60, 120, 180, 240, 300 minutes;
A swab testing is carried out every 30 minutes from matrix samples of each group to test for the viable count of bacteria at the time interval.
Example of sample with sequence in time: • AM: 0.5 ml bacteria solution is added at T0−10 min; • Sample A1: To swab from AM at T0; Sample A2: To swab from AM at T1; • AM: 0.5 ml bacteria solution is added at T2−10 min; • Sample A3: To swab from AM at T2; Sample A4: To swab from AM at T3; • AM: 0.5 ml bacteria solution is added at T4−10 min; and so forth. Table 2 summarized the testing schedule for durability test.

[2] = system: PolySeed BOD Seed Inoculum (blend of broad spectrum bacteria); experiment: Volatility test (duration of bacteria inhibition on agar plate, swab viable count); format: cell-based
Method: To study the duration on ability of bacteria inhibition of an exemplary composition, a volatility test is performed.
• Group A: Agar plate with 0.5 mL distilled water; • Group B: Agar plate with 0.5 mL 75% isopropyl alcohol (IPA); • Group C: Agar plate with 0.5 g of tested exemplary composition. • Bacteria strain used: PolySeed® BOD Seed Inoculum Capsules (1 capsule dissolved into 500 mL Distilled Water) (Interlab) • Agar: Trypticase Soy Agar (TSA) • Incubation condition: 48 hours at 30±1° C. Testing Procedure
0.5 mL bacteria solution is add into the agar plate groups A, B and C at the time interval of Tx. as defined in Table 1.3.
After T10, bacteria solution is spiked to all the agar plates except agar blank.
Swab test is carried out to test for the viable count of bacteria at the time interval Tx.

**Q.** How did the “Viable count of bacteria, durability test” value ([1]; T0 (0 min)) turn out when 75% isopropyl alcohol [75% IPA] was run?
**A.** 8 CFU/plate

**Q.** What about the “Viable count of bacteria, durability test” value ([1]; T1 (30 min)) of the same substance?
**A.** 28 CFU/plate

**Q.** What about the “Viable count of bacteria, durability test” value ([1]; T2 (60 min)) of the same substance?
**A.** 53 CFU/plate

**Q.** What about the “Viable count of bacteria, durability test” value ([1]; T3 (90 min)) of the same substance?
**A.** 89 CFU/plate

**Q.** What about the “Viable count of bacteria, durability test” value ([1]; T4 (120 min)) of the same substance?
**A.** 254 CFU/plate

**Q.** What about the “Viable count of bacteria, durability test” value ([1]; T5 (150 min)) of the same substance?
**A.** 346 CFU/plate

**Q.** And the “Viable count of bacteria, volatility test” value ([2]; T0 (0 min))?
**A.** 54 CFU/plate

**Q.** And the “Viable count of bacteria, volatility test” value ([2]; T1 (30 min))?
**A.** 62 CFU/plate

**Q.** What about the “Viable count of bacteria, volatility test” value ([2]; T2 (60 min)) of the same substance?
**A.** 50 CFU/plate

**Q.** And the “Viable count of bacteria, volatility test” value ([2]; T3 (90 min))?
**A.** 45 CFU/plate

**Q.** What about the “Viable count of bacteria, volatility test” value ([2]; T4 (120 min)) of the same substance?
**A.** 49 CFU/plate

**Q.** And the “Viable count of bacteria, volatility test” value ([2]; T5 (150 min))?
**A.** 55 CFU/plate

**Q.** And the “Viable count of bacteria, volatility test” value ([2]; T6 (180 min))?
**A.** 43 CFU/plate

**Q.** And the “Viable count of bacteria, volatility test” value ([2]; T7 (210 min))?
**A.** 37 CFU/plate

**Q.** What about the “Viable count of bacteria, volatility test” value ([2]; T8 (240 min)) of the same substance?
**A.** 44 CFU/plate

**Q.** And the “Viable count of bacteria, volatility test” value ([2]; T9 (270 min))?
**A.** 49 CFU/plate

**Q.** And the “Viable count of bacteria, volatility test” value ([2]; T10 (300 min))?
**A.** 0 CFU/plate
